The values below come from US20090304692A1, “TRIAZINE COMPOUNDS AS PI3 KINASE AND MTOR INHIBITORS” (Wyeth, priority 2008, published 2009).

In one assay the target is Human mTOR (FLAG-TOR) (Homo sapiens, UniProt P42345). Put plainly: mTOR kinase assay (DELFIA format, purified enzyme). Type of assay: biochemical. The conditions noted are these: read-out: IC50 mTOR.
Assay [1] deals with human breast MDA-MB-361 tumor cell line. The assay can be described thus: In vitro cell culture growth assay (MTS), MDA-MB-361. Type of assay: cell-based. The conditions noted are these: Homo sapiens, MDA-MB-361, 72 h, MTS cell growth assay, three days after drug treatment, read-out: IC50 MDA-MB-361.
Assay [2] concerns human prostate PC3-mm2 tumor cell line. Put plainly: In vitro cell culture growth assay (MTS), PC3-mm2. In kind it is cell-based. To be noted: Homo sapiens, PC3MM2, 72 h, MTS cell growth assay, three days after drug treatment, read-out: IC50 PC3-mm2. In general terms: Formazan colour is commonly taken as a measure of viable cells.
The target of the next assay is PI3K-α (Homo sapiens, UniProt P42336). The assay can be described thus: PI3K-alpha fluorescence polarization assay. To be noted: read-out: IC50 PI3Kα.
The target in another assay is PI3K-γ (Homo sapiens, UniProt P48736). The assay can be described thus: PI3K-gamma fluorescence polarization assay. The conditions noted are these: read-out: IC50 PI3Kγ. For orientation: Polarisation of emitted light reports the rotation of a fluorescent probe.

“And” between values parts separate entries of the source, which are not always exact repeats. Identical values can stand only once. Like-named read-outs stand apart in the source and are kept apart here.

Chain of PI3K-α (P42336 whole entry, species assumed): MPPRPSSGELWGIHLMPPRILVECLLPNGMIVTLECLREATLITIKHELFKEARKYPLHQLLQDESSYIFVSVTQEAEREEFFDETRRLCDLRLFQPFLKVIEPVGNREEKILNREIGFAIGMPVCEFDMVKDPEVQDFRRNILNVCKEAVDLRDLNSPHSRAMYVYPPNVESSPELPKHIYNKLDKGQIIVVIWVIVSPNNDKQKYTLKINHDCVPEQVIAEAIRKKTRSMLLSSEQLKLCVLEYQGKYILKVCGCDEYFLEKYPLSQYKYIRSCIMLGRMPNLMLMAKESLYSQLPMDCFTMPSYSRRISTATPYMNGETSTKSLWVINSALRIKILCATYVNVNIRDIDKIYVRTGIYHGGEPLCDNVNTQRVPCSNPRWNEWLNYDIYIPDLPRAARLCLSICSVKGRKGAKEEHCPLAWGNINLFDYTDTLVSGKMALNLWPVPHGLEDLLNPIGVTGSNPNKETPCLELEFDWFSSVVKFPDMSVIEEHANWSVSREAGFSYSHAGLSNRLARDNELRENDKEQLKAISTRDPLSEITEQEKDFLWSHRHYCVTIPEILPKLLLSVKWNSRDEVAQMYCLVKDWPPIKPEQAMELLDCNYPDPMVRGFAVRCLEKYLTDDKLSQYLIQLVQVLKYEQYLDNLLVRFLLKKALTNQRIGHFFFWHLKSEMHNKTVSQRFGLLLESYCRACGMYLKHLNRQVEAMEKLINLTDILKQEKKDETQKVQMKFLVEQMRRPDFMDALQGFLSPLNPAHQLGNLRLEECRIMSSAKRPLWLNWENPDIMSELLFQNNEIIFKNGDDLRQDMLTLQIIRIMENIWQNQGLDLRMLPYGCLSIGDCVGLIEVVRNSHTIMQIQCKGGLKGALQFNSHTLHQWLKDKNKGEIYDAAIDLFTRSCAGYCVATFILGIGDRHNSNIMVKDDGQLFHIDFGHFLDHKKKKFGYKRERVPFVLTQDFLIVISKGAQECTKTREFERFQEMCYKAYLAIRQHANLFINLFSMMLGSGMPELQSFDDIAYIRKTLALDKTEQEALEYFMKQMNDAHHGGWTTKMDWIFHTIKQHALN
Chain of PI3K-α (P27986 whole entry partner, species assumed): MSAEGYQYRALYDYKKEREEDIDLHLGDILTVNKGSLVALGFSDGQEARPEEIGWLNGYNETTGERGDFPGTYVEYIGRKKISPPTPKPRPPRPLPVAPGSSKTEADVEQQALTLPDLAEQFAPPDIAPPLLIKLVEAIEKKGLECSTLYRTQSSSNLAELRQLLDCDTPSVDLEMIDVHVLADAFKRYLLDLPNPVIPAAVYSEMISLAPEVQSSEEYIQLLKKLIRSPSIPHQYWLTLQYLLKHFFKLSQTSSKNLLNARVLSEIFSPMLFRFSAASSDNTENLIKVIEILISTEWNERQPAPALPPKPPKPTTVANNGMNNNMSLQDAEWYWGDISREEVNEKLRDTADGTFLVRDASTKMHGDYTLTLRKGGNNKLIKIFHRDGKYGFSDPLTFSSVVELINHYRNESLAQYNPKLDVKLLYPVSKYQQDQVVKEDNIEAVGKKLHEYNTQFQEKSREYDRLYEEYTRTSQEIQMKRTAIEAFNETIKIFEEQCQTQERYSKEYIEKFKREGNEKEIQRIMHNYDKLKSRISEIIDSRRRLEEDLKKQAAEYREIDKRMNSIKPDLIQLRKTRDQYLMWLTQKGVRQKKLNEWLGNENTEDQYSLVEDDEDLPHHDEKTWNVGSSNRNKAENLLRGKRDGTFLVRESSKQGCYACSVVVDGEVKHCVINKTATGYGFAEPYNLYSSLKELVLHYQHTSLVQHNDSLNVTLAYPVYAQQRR
Chain of PI3K-γ (P48736 whole entry, species assumed): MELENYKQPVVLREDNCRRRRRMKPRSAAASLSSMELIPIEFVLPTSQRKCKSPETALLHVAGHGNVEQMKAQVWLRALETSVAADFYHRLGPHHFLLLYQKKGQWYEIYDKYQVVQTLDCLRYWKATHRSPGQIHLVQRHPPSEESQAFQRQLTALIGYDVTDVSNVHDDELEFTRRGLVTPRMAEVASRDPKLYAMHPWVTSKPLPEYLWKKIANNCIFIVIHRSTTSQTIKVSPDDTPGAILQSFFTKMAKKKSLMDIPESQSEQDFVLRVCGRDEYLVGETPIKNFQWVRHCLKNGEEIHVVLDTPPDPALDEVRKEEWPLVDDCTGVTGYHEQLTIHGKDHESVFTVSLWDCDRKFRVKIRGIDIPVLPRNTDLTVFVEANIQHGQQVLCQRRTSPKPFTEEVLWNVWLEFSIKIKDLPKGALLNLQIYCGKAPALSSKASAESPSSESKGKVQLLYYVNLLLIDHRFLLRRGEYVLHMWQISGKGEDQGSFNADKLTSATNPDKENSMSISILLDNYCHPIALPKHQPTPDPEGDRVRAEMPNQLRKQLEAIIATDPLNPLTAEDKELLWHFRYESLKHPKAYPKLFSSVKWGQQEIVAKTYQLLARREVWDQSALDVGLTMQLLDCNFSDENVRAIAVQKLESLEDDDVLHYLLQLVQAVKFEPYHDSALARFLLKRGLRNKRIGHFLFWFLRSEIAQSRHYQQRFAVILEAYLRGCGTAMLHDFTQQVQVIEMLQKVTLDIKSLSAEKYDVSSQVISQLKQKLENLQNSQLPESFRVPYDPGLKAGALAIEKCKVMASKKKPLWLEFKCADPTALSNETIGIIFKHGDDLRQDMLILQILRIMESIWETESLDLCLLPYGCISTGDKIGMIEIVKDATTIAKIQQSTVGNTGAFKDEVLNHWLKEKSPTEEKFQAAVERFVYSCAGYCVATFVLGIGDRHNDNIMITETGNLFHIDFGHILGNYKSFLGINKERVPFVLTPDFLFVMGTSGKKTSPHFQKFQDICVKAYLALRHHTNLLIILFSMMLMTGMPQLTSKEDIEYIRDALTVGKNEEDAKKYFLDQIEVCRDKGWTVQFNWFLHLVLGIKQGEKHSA
Chain of Human mTOR (FLAG-TOR) (P42345 1360-2549 limits assumed): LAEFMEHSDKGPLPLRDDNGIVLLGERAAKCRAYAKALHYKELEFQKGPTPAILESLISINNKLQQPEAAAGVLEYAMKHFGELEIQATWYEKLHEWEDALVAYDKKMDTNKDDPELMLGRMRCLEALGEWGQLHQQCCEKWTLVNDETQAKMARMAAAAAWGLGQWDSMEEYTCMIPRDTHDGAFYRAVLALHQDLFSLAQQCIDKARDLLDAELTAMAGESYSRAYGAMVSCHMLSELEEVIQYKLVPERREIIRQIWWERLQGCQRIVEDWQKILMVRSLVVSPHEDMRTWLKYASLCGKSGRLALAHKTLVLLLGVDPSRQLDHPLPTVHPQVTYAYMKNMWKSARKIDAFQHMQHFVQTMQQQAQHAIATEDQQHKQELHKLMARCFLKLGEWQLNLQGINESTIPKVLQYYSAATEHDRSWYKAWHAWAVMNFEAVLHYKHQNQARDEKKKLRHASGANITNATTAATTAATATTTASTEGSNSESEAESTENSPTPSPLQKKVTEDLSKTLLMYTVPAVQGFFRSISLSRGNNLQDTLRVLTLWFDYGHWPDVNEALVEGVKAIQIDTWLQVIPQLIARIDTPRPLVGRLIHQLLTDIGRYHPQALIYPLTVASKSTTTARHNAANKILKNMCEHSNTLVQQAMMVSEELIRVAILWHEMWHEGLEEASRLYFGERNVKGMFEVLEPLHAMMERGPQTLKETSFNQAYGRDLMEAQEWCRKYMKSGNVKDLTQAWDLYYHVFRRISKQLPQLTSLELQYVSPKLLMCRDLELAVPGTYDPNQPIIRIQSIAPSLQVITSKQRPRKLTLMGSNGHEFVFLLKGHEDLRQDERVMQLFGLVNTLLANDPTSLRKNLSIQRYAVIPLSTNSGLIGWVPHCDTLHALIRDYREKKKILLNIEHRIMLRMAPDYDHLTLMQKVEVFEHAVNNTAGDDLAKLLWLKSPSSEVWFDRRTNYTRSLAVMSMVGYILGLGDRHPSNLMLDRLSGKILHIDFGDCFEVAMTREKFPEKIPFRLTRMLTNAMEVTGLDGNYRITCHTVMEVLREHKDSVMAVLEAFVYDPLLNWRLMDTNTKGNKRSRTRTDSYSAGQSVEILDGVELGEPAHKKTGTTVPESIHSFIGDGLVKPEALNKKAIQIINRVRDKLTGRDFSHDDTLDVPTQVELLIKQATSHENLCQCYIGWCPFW

Regarding `CC(=O)c1ccc(NC(=O)Nc2ccc(-c3nc(N4CCOCC4)nc(N4C5CCC4COC5)n3)cc2)cc1` [Example 230, 1-(4-acetylphenyl)-3-{4-[4-morpholin-4-yl-6-(3-oxa-8-azabicyclo[3.2.1]oct-8-yl)-1,3,5-triazin-2-yl]phenyl}urea], the concentration for half-maximal inhibition (IC50) at Human mTOR (FLAG-TOR) is 1.2 nM and 0.15 nM; in assay [1] (MDA-MB-361 cells), under 31 nM; in assay [2] (PC3-mm2 cells), under 31 nM; on PI3K-α, 22 nM; at PI3K-α (listed as 719) it was 17.5 nM; on PI3K-γ, 119 nM. Besides, the half-inhibitory concentration (IC50) at PI3K-γ (listed as 719) stood at 96 nM.
Turning to `CCCCc1nc(-c2ccc(NC(=O)Nc3ccc(C(=O)NCCN(C)C)cc3)cc2)nc(N2CCOCC2)n1` [Example 231, 4-({[4-(4-butyl-6-morpholin-4-yl-1,3,5-triazin-2-yl)phenyl]carbamoyl}amino)-N-[2-(dimethylamino)ethyl]benzamide], the 50% inhibitory concentration (IC50) on Human mTOR (FLAG-TOR) turned out to be 2.5 nM; in assay [1], 20 nM; in assay [2] it was 121 nM; at PI3K-α, 4 nM; on PI3K-γ, 63 nM.
For `CCCCc1nc(-c2ccc(NC(=O)Nc3ccc(C(=O)N4CCN(C)CC4)cc3)cc2)nc(N2CCOCC2)n1` [Example 232, 1-[4-(4-butyl-6-morpholin-4-yl-1,3,5-triazin-2-yl)phenyl]-3-{4-[(4-methylpiperazin-1-yl)carbonyl]phenyl}urea] the same measures were 83 nM, 38 nM, 177 nM, 6 nM and 37 nM.
The corresponding values for `CCc1nc(-c2ccc(NC(=O)Nc3ccc(C(=O)O)cc3)cc2)nc(N2CCOCC2)n1` [Example 233, 4-({[4-(4-ethyl-6-morpholin-4-yl-1,3,5-triazin-2-yl)phenyl]carbamoyl}amino)benzoic acid] are 7.9 nM, 1210 nM, 3340 nM, 55 nM and 121 nM.
`CCc1nc(-c2ccc(NC(=O)Nc3ccc(C(=O)N4CCN(C)CC4)cc3)cc2)nc(N2CCOCC2)n1` [Example 236, 1-[4-(4-ethyl-6-morpholin-4-yl-1,3,5-triazin-2-yl)phenyl]-3-{4-[(4-methylpiperazin-1-yl)carbonyl]phenyl}urea]: the 50% inhibitory concentration (IC50) is 11 nM and 9.4 nM at Human mTOR (FLAG-TOR); 22.3 nM in assay [1] (MDA-MB-361 cells); 22.3 nM in assay [1]; 67 nM in assay [2] (PC3-mm2 cells); 67 nM in assay [2]; 3 nM on PI3K-α. The IC50 at PI3K-α (listed as 536) came to 1.5 nM; at PI3K-γ, 15 nM; on PI3K-γ (listed as 536) it was 13 nM.
Regarding `CCc1nc(-c2ccc(NC(=O)Nc3ccc(C(=O)NCCN(C)C)cc3)cc2)nc(N2CCOCC2)n1` [Example 237, N-[2-(dimethylamino)ethyl]-4-({[4-(4-ethyl-6-morpholin-4-yl-1,3,5-triazin-2-yl)phenyl]carbamoyl}amino)benzamide], the IC50 on Human mTOR (FLAG-TOR) worked out at 3 nM; in assay [1], 28 nM; in assay [2], 69 nM; at PI3K-α, 2 nM; at PI3K-γ, 23 nM.
The corresponding values for `CCc1nc(-c2ccc(NC(=O)Nc3ccc(C(=O)N4CCC(N(C)C)CC4)cc3)cc2)nc(N2CCOCC2)n1` [Example 238, 1-(4-{[4-(dimethylamino)piperidin-1-yl]carbonyl}phenyl)-3-[4-(4-ethyl-6-morpholin-4-yl-1,3,5-triazin-2-yl)phenyl]urea] are 3.6 nM, 23 nM, 61 nM, 1 nM and 10 nM.
Take `CCCCc1nc(-c2ccc(NC(=O)Nc3ccc(CO)cc3)cc2)nc(N2CCOCC2)n1` [Example 239, 1-[4-(4-butyl-6-morpholin-4-yl-1,3,5-triazin-2-yl)phenyl]-3-[4-(hydroxymethyl)phenyl]urea]: the IC50 on Human mTOR (FLAG-TOR) was 3.2 nM; in assay [1] it was 184 nM; in assay [2] it was 317 nM; on PI3K-α it was 11 nM; on PI3K-γ it was 38 nM.

As a reminder, the IC50 is the concentration at which inhibition is half-maximal.
